Patent US8232414B2, “Polymorphic form of rotigotine and process for production” (UCB Pharma GmbH, priority 2007, dated 2012)

Key:
[1] = Solubility in EtOH at room temperature; assay type: physicochemical
[2] = Thermodynamic stability from DSC (melting point, enthalpy of fusion; Burger-Ramberger rules); assay type: physicochemical; settings: heating rate 10° C./min, 30° C. to 140° C., Burger-Ramberger rules applied
Source text: Polymorph form (II) of rotigotine can be further characterized and distinguished from form (I) by differential scanning calorimetry (DSC). A DSC thermogram of form (II) is provided in FIG. 5, and was obtained using DSC techniques known to those of skill in the art. One of skill in the art would readily be able to determine the conditions necessary to obtain a DSC thermogram of form (II). A variety of differential scanning calorimeters are available to those of skill in the art and include the Differential Scanning Calorimeter of Mettler Toledo (DSC822e) using temperatures of about 25° C. to about 250° C., in particular about 30° C. to about 140° C. and temperature increases at various rates including 1° C./min, 10° C./min, 20° C./min, among other instruments and conditions. One skilled in the art would recognize that the peak positions in the DSC thermogram can vary depending upon kinetic factors such as, for example, heating rate and particle size. Thermal behavior investigations of rotigotine of polymorphic form (I) (batch 1608726) and of polymorphic form (II) (batch 7769396) were performed on a Mettler Toledo DSC system and on a TA instrument (Q-1000). The analyses were carried out with a heating rate of 10° C./min in pierced aluminum crucibles in a temperature range from 30° C. to 140° C.

| Structure (SMILES) | solubility in EtOH [1] | solubility in EtOH relative to polymorphic form (I) ([1]; form (II) versus form (I)) | thermodynamic stability relative to form (I) [2] | thermodynamic stability relative to form (I) ([2]; listed as form (II)) |
| --- | --- | --- | --- | --- |
| CCCN(CCc1cccs1)[C@H]1CCc2c(O)cccc2C1 [polymorphic form (II), (−)-5,6,7,8-tetrahydro-6-[propyl-[2-(2-thienyl)ethyl]amino]-1-naphthalenol] | 60 to 100 mg/mL | at least five times lower | thermodynamically more stable than polymorphic form (I) at all considered temperatures | thermodynamically more stable than form (I) at any temperature considered |
| CCCN(CCc1cccs1)[C@H]1CCc2c(O)cccc2C1 [polymorphic form (I), (−)-5,6,7,8-tetrahydro-6-[propyl-[2-(2-thienyl)ethyl]amino]-1-naphthalenol, reference compound] | about 500 mg/ml | – | – | – |
